The term IC50 denotes the concentration that gives 50% inhibition. Low values mean greater potency, high ones weaker potency.

Structures are written as SMILES.

These results are taken from BindingDB's records for doi:10.1016/S0960-894X(96)00551-3 (1996).

Test [1] in a line: Compound was tested for its ability to inhibit Endothelin A receptor induced arachidonic acid release(AARA) in rabbit renal artery vascular smooth muscles.
Test [2] concerns the target Endothelin A receptor (Oryctolagus cuniculus). Described as above.
The target is the same in test [3]. As to the kind of experiment: Antagonistic activity against endothelin A receptor in rabbit renal artery vascular smooth muscle cells.

Consider `OCC(c1ccc2c(c1)OCO2)c1c2ccccc2nc2ccccc12` (stereo unspecified) [2-Acridin-9-yl-2-benzo[1,3]dioxol-5-yl-ethanol], for which the midpoint of inhibition in test [1], the IC50, lay at 10 µM.

Regarding `Cc1cc(C(C(N)=O)c2ccc3c(c2)OCO3)c2ccccc2n1` (stereo unspecified) [2-Benzo[1,3]dioxol-5-yl-2-(2-methyl-quinolin-4-yl)-acetamide], the concentration for half-maximal inhibition (IC50) in test [2] was 13 µM.

In test [3], `COC(=O)C(Cc1c2ccccc2cc2ccccc12)c1ccc2c(c1)OCO2` (stereo unspecified) [3-Anthracen-9-yl-2-benzo[1,3]dioxol-5-yl-propionic acid methyl ester] registered a concentration for half-maximal inhibition (IC50) of over 25 µM.

With `O=C(OCc1ccc2c(c1)OCO2)C(c1ccc2c(c1)OCO2)c1c2ccccc2nc2ccccc12` (stereo unspecified) [Acridin-9-yl-benzo[1,3]dioxol-5-yl-acetic acid benzo[1,3]dioxol-5-ylmethyl ester], half-maximal inhibition in test [3] (IC50) was put at 8.7 µM.

As for `O=C(OCc1ccccc1)C(c1ccc2c(c1)OCO2)c1c2ccccc2nc2ccccc12` (stereo unspecified) [Acridin-9-yl-benzo[1,3]dioxol-5-yl-acetic acid benzyl ester], in test [3], the IC50 came to 7.5 µM.

Regarding `COC(=O)C(c1ccc2c(c1)OCO2)c1cc(C)nc2ccccc12` (stereo unspecified) [Benzo[1,3]dioxol-5-yl-(2-methyl-quinolin-4-yl)-acetic acid methyl ester], in test [2], the IC50 worked out at 2.8 µM.
